# Several values for one entry are separate records, joined by “and”; a condition that tells them apart may be missing. Identical values can stand only once.
# Legend:
# C57BL/6 mice [1] = assay: Toxicology on chronic administration (body weight, health); format: in vivo, mouse; conditions: for weight-loss on chronic administration: 32 mg/kg, C57BL/6 WT mice, tolerance experiment; for health on repeated administration (need for euthanasia): preliminary experiments, without saline supplement
# rats = system: rats; parameters: method as in Mada et al., 2020; conditions: ref Mada et al., 2020; cited from earlier work
# C57BL/6 mice [2] = assay: Chronic administration and antinociceptive tolerance, 50°C WWTW; format: in vivo, mouse; conditions: for day of first statistically significant antinociceptive tolerance: 10 mg/kg morphine, 32 mg/kg 12, i.p. 3x daily, WT mice
# Procedure: As expected, the OPr antagonist and MOPr KO experiments indicate that antinociception and likely tolerance are MOPr-mediated effects.
# Chronic administration and antinociceptive tolerance. To investigate antinociceptive tolerance, either C57BL/6 WT or MOR KO mice were administered (i.p.) drug 2-3 times a day as indicated (Figure 3). […]. Mice administered with 12 were injected with 0.5 mL 0.9% saline (s.c.) twice daily. Mice were injected again at 7 p.m. on day 1, but neither weighed nor tested for antinociception. […]. A two-way analysis of variance (ANOVA) was conducted for all tolerance assays. The significance threshold was p < 0.05, and a Tukey post hoc test followed all significant ANOVAs.
# DOPr [3] = biological target: T1, DOPr (Homo sapiens, UniProt P41143); assay: biochemical; conditions: for Emax: read-out: DOPr Emax ±SEM; for Selectivity DOPr/MOPr (EC50): ratio of [35S]GTPγS EC50
# T1 construct: host or cells: CHO
# T1 sequence (P41143 whole entry): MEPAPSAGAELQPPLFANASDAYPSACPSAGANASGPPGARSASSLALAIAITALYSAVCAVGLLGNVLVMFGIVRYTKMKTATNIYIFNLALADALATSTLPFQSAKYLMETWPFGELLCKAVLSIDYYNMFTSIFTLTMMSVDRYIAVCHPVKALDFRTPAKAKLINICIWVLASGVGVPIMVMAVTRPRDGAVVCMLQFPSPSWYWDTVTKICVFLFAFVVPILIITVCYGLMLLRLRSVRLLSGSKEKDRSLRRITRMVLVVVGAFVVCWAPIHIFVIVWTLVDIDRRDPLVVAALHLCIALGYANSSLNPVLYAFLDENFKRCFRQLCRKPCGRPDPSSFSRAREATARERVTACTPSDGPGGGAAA
# MOPr [4] = biological target: T2, MOPr (Homo sapiens, UniProt P35372); assay: [35S]GTPγS coupling, MOPr-CHO membranes; format: biochemical; conditions: for Emax: read-out: MOPr Emax ±SEM
# T2 construct: host or cells: CHO
# T2 sequence (P35372 whole entry): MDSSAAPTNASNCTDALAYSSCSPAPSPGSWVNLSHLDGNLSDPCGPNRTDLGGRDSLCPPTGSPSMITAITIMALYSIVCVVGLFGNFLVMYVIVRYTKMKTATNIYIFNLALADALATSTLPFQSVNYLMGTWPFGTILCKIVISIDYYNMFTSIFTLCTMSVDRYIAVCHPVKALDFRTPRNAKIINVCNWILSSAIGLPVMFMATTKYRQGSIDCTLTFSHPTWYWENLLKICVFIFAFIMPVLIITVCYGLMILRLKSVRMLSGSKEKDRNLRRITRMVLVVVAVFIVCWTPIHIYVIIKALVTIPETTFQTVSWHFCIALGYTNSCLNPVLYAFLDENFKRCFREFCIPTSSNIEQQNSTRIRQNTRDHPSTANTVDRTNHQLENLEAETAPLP
# C57BL/6 mice [5] = assay: Acute antinociception, 50°C warm water tail withdrawal (WWTW); format: in vivo, mouse; conditions: i.p.; for tail withdrawal latency, dose-response: 30 min before 50°C WWTW, C57BL/6 WT mice
# Procedure: The 50°C warm water tail withdrawal (WWTW) antinociception assay is a standard preclinical pain assay, in which clinical analgesics increase the latency of tail removal from the warm water (Figure 2A).
# To compare the total antinociceptive activity over time, we determined the area under the curve (AUC) of each ligand’s time-course.
# Acute antinociception: 50°C warm-water tail withdrawal test in C57BL/6 mice. […] A maximum cutoff time of 20 s was implemented to prevent tissue damage. […] Drug-stimulated antinociception was expressed as a percentage of maximum possible effect (% MPE), where % MPE = (drug latency—baseline latency)/(cutoff latency—baseline latency) × 100. The acute antinociception results were analyzed with a one-way ANOVA followed by a post hoc Dunnett test comparing the drug(s) to vehicle.
# DOPr [6] = biological target: T1, DOPr; assay: biochemical; format: binding; conditions: for DOPr ΔG: Gibb's free energy converted from experimental Ki
# Procedure: (§1) Cell lines, cell culture, and drug preparation. The hDOPr-CHO cell line was a generous gift from Dr. Larry Toll at the Torrey Pines Institute. The hMOPr- and hKOPr-CHO cell lines were generous gifts from John M. Streicher at the University of Arizona. All cells were cultured in 50:50 DMEM/F12 media with 10% heat-inactivated FBS and 1X penicillin/streptomycin supplement (all Gibco brand) in a 37°C humidified incubator with 5% CO2 atmosphere. Propagation cultures were further maintained with 500 μg/mL G418. Cultures were propagated for no more than 30 passages before discarding. […] Cell pellets were resuspended in 50 mM Tris HCl pH 7.4 and homogenized with a tissue grinder for 15–30 s on ice. Crude membranes were spun down at 15,000 g for 30 min. This process was repeated, and membrane preparations were stored at −80°C prior to use.
# (§2) Briefly, these reactions were miniaturized to a 400 μL volume in 96 well plates and incubated at RT for 1 h at DOPr-, KOPr- and MOPr-CHO membrane preparations. The reactions were terminated by rapid filtration through 96-well format GF/B filter plates (PerkinElmer) and washed with cold 25 mM Tris HCl pH 7.4 buffer, dried, and added ECOLUME^TM scintillation cocktail from MP Biomedicals (Santa Cruz, CA, United States). The plates were read in a MicroBeta2 96-well format 6 detector scintillation counter (PerkinElmer). KI values were calculated using the IC50 of each competitor ligand and the previously established KD of ^3H-diprenorphine in each cell line using a competition binding model (GraphPad Prism 7.0).
# KOPr [7] = biological target: T3, KOPr (Homo sapiens, UniProt P41145); assay: biochemical; format: binding; conditions: for Ki: [3H]-diprenorphine, CHO membranes, n = 3, mean ± SEM; for Selectivity KOPr/MOPr (Ki): ratio of binding Ki
# T3 construct: host or cells: CHO
# T3 sequence (P41145 whole entry): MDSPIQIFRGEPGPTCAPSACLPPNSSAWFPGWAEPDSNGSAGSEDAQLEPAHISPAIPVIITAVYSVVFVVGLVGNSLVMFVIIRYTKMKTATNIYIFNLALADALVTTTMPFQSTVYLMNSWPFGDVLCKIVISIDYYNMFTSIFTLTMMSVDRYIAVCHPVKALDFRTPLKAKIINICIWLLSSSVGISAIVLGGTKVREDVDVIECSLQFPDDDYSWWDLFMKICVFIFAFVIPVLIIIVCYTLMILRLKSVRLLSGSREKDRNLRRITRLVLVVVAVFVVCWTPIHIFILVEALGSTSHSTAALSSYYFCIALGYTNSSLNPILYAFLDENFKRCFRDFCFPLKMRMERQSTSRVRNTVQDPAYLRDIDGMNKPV
# Procedure: as §1, §2
# MOPr [8] = biological target: T2, MOPr; assay: biochemical; format: binding; conditions: for MOPr ΔG: Gibb's free energy converted from experimental Ki; for Ki: [3H]-diprenorphine, CHO membranes, n = 3, mean ± SEM
# Procedure: as §1, §2
# DOPr [9] = biological target: T1, DOPr; assay: βarrestin2 recruitment (DiscoveRx PathHunter); format: cell-based
# Excerpt: We further evaluated 12 in βarrestin2 recruitment assays (DiscoveRx) to evaluate DOPr agonist vs. antagonist efficacy in a higher efficacy requiring assay (Supplementary Figure S1). […] None of the compounds in this series stimulated KOPr-mediated G-protein recruitment. Retaining selectivity over KOPr is vital because KOPr agonists cause dysphoria and hallucinations ([Bruchas et al., 2007]; [Cunningham et al., 2011]).
# βarrestin2 recruitment. βarrestin2 recruitment in CHO cells expressing […] was measured using the DiscoverRx PathHunter® assay kit (DiscoveRx, Fremont, CA) according to the manufacturer’s protocol. Assays were performed on at least three separate occasions in triplicate. Luminescence was read using a Synergy 2 plate reader (BioTek, Winooski, VT).
# KOPr [10] = biological target: T3, KOPr; assay: [35S]GTPγS coupling, KOPr-CHO membranes; format: biochemical; conditions: Emax% relative to U69,593, read-out: KOPr Emax ±SEM
SMILES,EC50 (DOPr [3]) [nM],Emax (DOPr [3]) [%],EC50 (MOPr [4]) [nM],Emax (MOPr [4]) [%],Ki (DOPr [6]) [nM],DOPr ΔG (DOPr [6]) [kcal/mol],Ki (KOPr [7]) [nM],Selectivity KOPr/MOPr (Ki) (KOPr [7]),MOPr ΔG (MOPr [8]) [kcal/mol],Ki (MOPr [8]),Selectivity DOPr/MOPr (EC50) (DOPr [3]),other results
"CN1CC[C@]23c4c5ccc(O)c4O[C@H]2C(=O)/C(=C/c2ccccc2)C[C@@]3(O)[C@H]1C5 [Compound 5, 7-E-benzylideneoxymorphone]",26 ± 4,22 ± 4,63 ± 25,53 ± 9,–,–,–,–,–,–,–,"weight-loss on chronic administration (C57BL/6 mice [1]): neither weight-loss nor antinociception; antinociception in the warm water tail withdrawal test (rats): < 20 % MPE; antinociception in the tolerance paradigm (C57BL/6 mice [2]; 32 mg/kg, C57BL/6 WT mice): neither weight-loss nor antinociception; tail withdrawal latency, dose-response (C57BL/6 mice [5]): negligible antinociception"
CN1CC[C@]23c4c5ccc(O)c4O[C@H]2C(=O)/C(=C/c2ccc(F)cc2)C[C@@]3(O)[C@H]1C5 [Compound 7],–,< 15,95 ± 25,69 ± 16,55 ± 8,-9.97 ± 0.08,> 1000,>50,-10.57 ± 0.28,19.9 ± 11.7 nM,–,–
CN1CC[C@]23c4c5ccc(O)c4O[C@H]2C(=O)/C(=C/c2ccc(Cl)cc2)C[C@@]3(O)[C@H]1C5 [Compound 8],145 ± 14,9 ± 3,> 1000,–,47 ± 16,-10.06 ± 0.17,> 1000,>42,-10.46 ± 0.03,23.8 ± 1.2 nM,<0.15,–
CN1CC[C@]23c4c5ccc(O)c4O[C@H]2C(=O)/C(=C/c2ccc(Br)cc2)C[C@@]3(O)[C@H]1C5 [Compound 9],–,< 15,> 1000,–,121 ± 45,-9.50 ± 0.19,> 1000,>25,-10.16 ± 0.14,39.9 ± 10.5 nM,–,–
COc1ccc(/C=C2\C[C@@]3(O)[C@H]4Cc5ccc(O)c6c5[C@@]3(CCN4C)[C@@H](O6)C2=O)cc1 [Compound 10],102 ± 8,30 ± 9,172 ± 55,80 ± 5,37 ± 9,-10.20 ± 0.13,> 1000,>90,-10.92 ± 0.12,11 ± 2.4 nM,0.59,–
CN1CC[C@]23c4c5ccc(O)c4O[C@H]2C(=O)/C(=C/c2ccc(O)cc2)C[C@@]3(O)[C@H]1C5 [Compound 11],97 ± 40,21 ± 6,275 ± 100,85 ± 6,37 ± 7,-10.20 ± 0.10,> 1000,>44,-10.49 ± 0.14,22.7 ± 6 nM,0.35,–
"CN1CC[C@]23c4c5ccc(O)c4O[C@H]2C(=O)/C(=C/c2ccc([N+](=O)[O-])cc2)C[C@@]3(O)[C@H]1C5 [Compound 12, Nitro-benzylideneoxymorphone]",20 ± 5,28 ± 4,2.2 ± 0.5,87 ± 7,10 ± 3,-10.98 ± 0.16,180 ± 60,197,-12.42 ± 0.17,0.9 ± 0.3 nM,9.1,"weight-loss on chronic administration (C57BL/6 mice [1]): equal or greater weight-loss than those treated with morphine; health on repeated administration (need for euthanasia) (C57BL/6 mice [1]): became sick and had to be euthanized; Kb (DOPr [9]): 32 nM; DOPr-mediated βarrestin2 recruitment, compound alone (DOPr [9]; agonist mode, any concentration): did not stimulate; day of first statistically significant antinociceptive tolerance (C57BL/6 mice [2]): 2 days; antinociception after naloxone pretreatment (C57BL/6 mice [2]; 32 mg/kg 12, 10 mg/kg naloxone pretreatment, C57BL/6 WT): blocked antinociception; antinociception in MOPr KO mice (C57BL/6 mice [2]; 32 mg/kg i.p., C57BL/6 MOPr KO): did not show antinociception; Emax (KOPr [10]): < 15%; MOPr potency relative to that reported for oxymorphone (MOPr [4]; higher potency than oxymorphone (Olson et al., 2019)): approximately 10 fold; area under the curve (AUC) of antinociceptive time-course (C57BL/6 mice [5]; 32 mg/kg 12 or 10 mg/kg morphine, tested every 30 min): 9247 s*min; tail withdrawal latency, dose-response (C57BL/6 mice [5]): dose-dependent increase in tail withdrawal latency; antinociceptive potency relative to morphine (C57BL/6 mice [5]; less potent than morphine, WWTW): approximately 3 fold"
CN1CC[C@]23c4c5ccc(O)c4O[C@H]2C(=O)/C(=C/c2cccc4ccccc24)C[C@@]3(O)[C@H]1C5 [Compound 13],102 ± 37,36 ± 10,> 1000,–,56 ± 20,-9.95 ± 0.18,> 1000,>13,-9.78 ± 0.17,75 nM and 74.8 nM,–,–
CN1CC[C@]23c4c5ccc(O)c4O[C@H]2C(=O)/C(=C/c2ccc4ccccc4c2)C[C@@]3(O)[C@H]1C5 [Compound 14],–,< 15,12 ± 5,78 ± 11,36 ± 4,-10.22 ± 0.06,390 ± 140,299,-12.20 ± 0.29,1.3 ± 0.8 nM,–,Emax (KOPr [10]): < 15%
"CN1CC[C@]23c4c5ccc(O)c4O[C@H]2[C@@H](O)C=C[C@H]3[C@H]1C5 [morphine, reference compound]",–,–,–,–,–,–,–,–,–,–,–,health on repeated administration (need for euthanasia) (C57BL/6 mice [1]): did not require euthanasia; day of first statistically significant antinociceptive tolerance (C57BL/6 mice [2]): 3 days
